Results from patent US8742156B2 (priority 2010, dated 2014).
Structures can show the parent of a compound that is named as a salt.

Tested on: H1N1 virus (A/Vicotria/07159200/07 (Tamiflu-resistant strain))
Format: cell-based, Human influenza H1N1 virus
Settings: for effect on viral titers of Tamiflu-resistant (Tami-R) H1N1 virus: FIG. 1, multiplicity of infection of 0.2

N=C(Nc1ccccc1)SCCCSC(=N)Nc1ccccc1 [Compound 58, Carbamimidothioic acid, phenyl-, 1,3-propanediyl ester, dihydrobromide]
effect on viral titers of Tamiflu-resistant (Tami-R) H1N1 virus: potent inhibitory effects | viral titer of Tami-R H1N1-infected cells decreased (fold) (FIG. 1, multiplicity of infection of 0.2, 48-hour post-infection): 4 fold

CCOC(=O)C1=C[C@@H](OC(CC)CC)[C@H](NC(C)=O)[C@@H](N)C1 [Tamiflu, oseltamivir, reference compound]
Tami-R H1N1 viral titers decreased (%) (10 uM, multiplicity of infection of 0.2, 48-hour post-infection): 20% | effect on viral titers of Tamiflu-resistant (Tami-R) H1N1 virus: minimal effects
